Source: patent US20070044168A1, “Transplantable tumor model” (Northwestern University, priority 2005, published 2007)

Tested on: clonal CB1 zebrafish
Experiment: Tumor induction by continuous immersion in DEN solution
Type: in vivo
Conditions: 100 ppm DEN immersion for 8 weeks
Method: Tumor induction. Sixty-five 2.5-month-old fish from the clonal CB1 line were used for tumor induction by continuous immersion in N-nitrosodiethylamine (DEN) solution (100 ppm) during the 8 weeks. During DEN, exposure fish were maintained in 20-L acrylic tanks equipped with a mechanical filter and an automatic heater. The filters were cleaned twice weekly. The complete exchange of water containing the carcinogen was done every 2 weeks. The water temperature was maintained at 26±0.5° C. Following completion of DEN exposure the fish were transferred to a 20-L system tank and remained under observation for up to 9 months.
The grossly visible tumors began to emerge in fish 3 to 7 months after the beginning of exposure to DEN. Four spontaneous tumors diagnosed as acinar cell carcinomas of the pancreas were detected in 10.5- to 18-month-old female CB1 fish (See, e.g., FIG. 1G).

## CCN(CC)N=O [DEN, N-nitrosodiethylamine]
CB1 fish
  emergence of grossly visible tumors after the beginning of exposure: 3 to 7 months
sixty-five 2.5-month-old CB1 fish, observed up to 9 months
  primary tumors localized in the abdominal area: 35
